In patent publication US20250368648A1, “MULTI-CYCLIC IRAK AND FLT3 INHIBITING COMPOUNDS AND USES THEREOF” (CHILDREN'S HOSPITAL MEDICAL CENTER, priority 2022, published 2025):

Columns and labels:
[1] = target: T1, FLT3 ITD, D835V (Homo sapiens, UniProt P36888, D835V, form not given); assay: DiscoverX KINOMEscan competition binding, FLT3 ITD, D835V; details: no ATP
T1 construct: fused on or other part: DNA tag for qPCR read-out (T7 phage fusion, or DNA-tagged kinase made in HEK-293 cells)
T1 sequence (P36888 1-993 D835V): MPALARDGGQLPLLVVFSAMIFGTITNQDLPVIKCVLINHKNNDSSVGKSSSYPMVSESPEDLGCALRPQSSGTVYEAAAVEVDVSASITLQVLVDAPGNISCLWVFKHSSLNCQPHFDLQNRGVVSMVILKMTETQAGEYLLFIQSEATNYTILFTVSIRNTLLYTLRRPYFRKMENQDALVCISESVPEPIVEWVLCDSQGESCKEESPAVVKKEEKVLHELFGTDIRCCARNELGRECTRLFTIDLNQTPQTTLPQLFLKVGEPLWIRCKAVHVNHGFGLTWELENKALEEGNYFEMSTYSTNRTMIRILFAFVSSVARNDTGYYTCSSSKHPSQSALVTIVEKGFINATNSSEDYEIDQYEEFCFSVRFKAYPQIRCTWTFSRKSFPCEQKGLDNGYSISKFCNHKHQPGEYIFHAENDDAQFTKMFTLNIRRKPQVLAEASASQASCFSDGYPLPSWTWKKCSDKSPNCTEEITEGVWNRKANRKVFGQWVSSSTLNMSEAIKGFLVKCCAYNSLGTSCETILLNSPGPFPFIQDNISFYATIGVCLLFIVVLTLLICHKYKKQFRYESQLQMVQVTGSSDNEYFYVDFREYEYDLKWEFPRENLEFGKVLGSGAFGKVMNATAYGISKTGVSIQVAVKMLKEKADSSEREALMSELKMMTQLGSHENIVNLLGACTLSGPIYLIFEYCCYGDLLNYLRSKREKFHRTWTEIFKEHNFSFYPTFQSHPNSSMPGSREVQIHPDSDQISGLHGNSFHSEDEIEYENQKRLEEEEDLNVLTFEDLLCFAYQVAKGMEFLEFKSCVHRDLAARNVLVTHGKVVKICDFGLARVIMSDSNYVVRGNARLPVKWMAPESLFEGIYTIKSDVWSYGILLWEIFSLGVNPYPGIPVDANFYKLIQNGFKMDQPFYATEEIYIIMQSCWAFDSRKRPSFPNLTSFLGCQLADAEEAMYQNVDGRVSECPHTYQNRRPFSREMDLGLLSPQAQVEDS
Text: (§1) Kinase binding data were obtained for various exemplary compounds prepared according to Examples 2-15 using the DiscoverX KINOMEscan® active site-directed competition binding site-directed assay protocol described below. […] As a result, the data report thermodynamic interaction affinities (Kd values), rather than IC50 values that are dependent on ATP concentrations. The assay uses a DNA-tagged version of the protein kinase, and an immobilized ligand bound to a solid support. Compounds that directly or indirectly prevent kinase binding to the immobilized ligand reduce the amount of kinase captured on the solid support, which is detected using an ultra-sensitive qPCR method. Affinity constants reported from the assay have been reported to be independent of the immobilized ligand used that is coupled to the solid support (See supplemental information in Fabian, M. A. et. al., (2005) Nat. […] Wodicka, L. […] Biol. 17, 1241-1249.) Kinase-tagged T7 phage strains were prepared in an E. coli host derived from the BL21 strain. E. coli were grown to log-phase and infected with T7 phage and incubated with shaking at 32° C. until lysis. […] Kds were determined using an 11-point 3-fold compound dilution series with three DMSO control points. […] The kinase concentration in the eluates was measured by qPCR. Binding constants (Kds) were calculated with a standard dose-response curve using the Hill equation. […]

[2] = target: T2, FLT3 D835Y (Homo sapiens, UniProt P36888, D835Y); assay: DiscoverX KINOMEscan competition binding, FLT3 D835Y; details: no ATP
T2 construct: purchased DiscoverX (KINOMEscan); host or cells: E. coli (T7 phage) or HEK-293
T2 sequence (P36888 27-993 D835Y): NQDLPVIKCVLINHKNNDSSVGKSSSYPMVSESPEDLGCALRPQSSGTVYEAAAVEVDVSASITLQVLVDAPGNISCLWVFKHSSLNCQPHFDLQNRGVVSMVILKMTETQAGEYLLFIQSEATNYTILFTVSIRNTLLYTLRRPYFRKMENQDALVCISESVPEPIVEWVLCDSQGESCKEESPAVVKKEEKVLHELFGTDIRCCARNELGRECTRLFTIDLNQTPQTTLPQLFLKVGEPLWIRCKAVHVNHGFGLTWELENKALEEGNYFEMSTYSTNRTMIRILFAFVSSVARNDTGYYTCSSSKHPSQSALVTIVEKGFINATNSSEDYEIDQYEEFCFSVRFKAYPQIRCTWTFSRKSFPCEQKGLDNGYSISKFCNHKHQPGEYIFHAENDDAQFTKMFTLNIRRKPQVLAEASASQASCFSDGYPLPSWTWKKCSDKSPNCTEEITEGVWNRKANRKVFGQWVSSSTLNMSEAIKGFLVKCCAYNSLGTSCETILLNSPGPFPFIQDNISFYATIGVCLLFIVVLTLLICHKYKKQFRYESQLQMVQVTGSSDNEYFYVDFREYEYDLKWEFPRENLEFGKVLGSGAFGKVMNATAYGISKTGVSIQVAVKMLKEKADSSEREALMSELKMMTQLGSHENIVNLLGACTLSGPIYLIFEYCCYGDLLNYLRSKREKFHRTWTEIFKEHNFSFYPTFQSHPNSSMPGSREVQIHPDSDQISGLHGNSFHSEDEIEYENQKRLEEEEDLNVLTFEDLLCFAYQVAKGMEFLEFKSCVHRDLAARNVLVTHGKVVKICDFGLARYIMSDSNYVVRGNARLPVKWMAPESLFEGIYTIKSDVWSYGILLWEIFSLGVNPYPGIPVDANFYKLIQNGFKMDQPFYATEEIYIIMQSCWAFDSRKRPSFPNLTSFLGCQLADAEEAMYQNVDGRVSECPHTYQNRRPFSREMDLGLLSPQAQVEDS
Text: as §1

COc1cc2ncc(-c3nc(N[C@H]4CNCC[C@@H]4F)c(F)cc3F)n2nc1C1CCC1 [Compound 15a, 6-(6-cyclobutyl-7-methoxyimidazo[1,2-b]pyridazin-3-yl)-3,5-difluoro-N-((3S,4S)-4-fluoropiperidin-3-yl)pyridin-2-amine]
Kd [1]: < 0.17 nM
Kd [2]: < 0.17 nM
